According to PubChem BioAssay (NCI):
Values joined by “and” are separate entries in the source; they are usually repeats but may differ in a detail not shown here. Equal values may be shown once.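 Compound exposure: 48 hours, 5 concentrations, 96-well plates. Here, GI50 denotes the concentration required for 50% inhibition of growth. TGI: concentration producing complete growth inhibition.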

How the values were obtained:
Test in all cases: inhibition of tumour cell growth, NCI panel, 48 h
EKVX NSCLC = system: EKVX NSCLC
SK-MEL-2 melanoma = system: SK-MEL-2 melanoma
CCRF-CEM leukemia = system: CCRF-CEM leukemia
SNB-19 CNS = system: SNB-19 CNS
786-0 renal = system: 786-0 renal
MDA-MB-435 = system: MDA-MB-435
MALME-3M melanoma = system: MALME-3M melanoma
NCI-H522 lung = system: NCI-H522 lung
NCI-H23 lung = system: NCI-H23 lung
DU-145 prostate = system: DU-145 prostate
OVCAR-3 ovarian = system: OVCAR-3 ovarian
A549 NSCLC = system: A549 NSCLC
SF-268 CNS = system: SF-268 CNS
OVCAR-5 ovarian = system: OVCAR-5 ovarian
MDA-N = system: MDA-N

Compound | TGI (EKVX NSCLC) | TGI (SK-MEL-2 melanoma) | TGI (CCRF-CEM leukemia) | TGI (SNB-19 CNS) | TGI (786-0 renal) | TGI (MDA-MB-435) | TGI (MALME-3M melanoma) | TGI (NCI-H522 lung) | TGI (NCI-H23 lung) | TGI (DU-145 prostate) | TGI (OVCAR-3 ovarian) | TGI (A549 NSCLC) | TGI (SF-268 CNS) | TGI (OVCAR-5 ovarian) | TGI (MDA-N) | GI50 (SK-MEL-2 melanoma) | GI50 (CCRF-CEM leukemia) | GI50 (SNB-19 CNS) | GI50 (NCI-H522 lung) | GI50 (NCI-H23 lung)
CN(CCCNC(=O)c1nn(C)c2c1Cc1ccccc1-2)CCCNC(=O)c1nn(C)c2c1Cc1ccccc1-2 | 39.2 µM | 32 µM | 10.9 µM | 26.4 µM | 24.5 µM | 27 µM | 37.2 µM | 40.6 µM | 47.3 µM | 32.4 µM | 38 µM | 33.3 µM | 37.9 µM | 40.8 µM | – | – | – | – | – | –
COc1c(Br)cc2ccccc2c1-c1c(OC)c(Br)cc2ccccc12 | > 100 µM | > 100 µM | > 100 µM | > 100 µM | > 100 µM | > 100 µM | – | > 100 µM | > 100 µM | > 100 µM | > 100 µM | > 100 µM | > 100 µM | > 100 µM | > 100 µM | – | – | – | – | –
COC(=O)C1=C(O)CCCC(C2CCCCC(=O)C2C(=O)OC)=C1 (stereo not given) | > 100 µM | > 100 µM | 89.3 µM | > 100 µM | > 100 µM | > 100 µM | – | – | > 100 µM | > 100 µM | > 100 µM | > 100 µM | – | > 100 µM | > 100 µM | – | – | – | – | –
COC(=O)C1CCC(=O)N1C(c1cc(OC)c(OC)c(OC)c1)c1cccc2ccccc12 (stereo not given) | > 100 µM | > 100 µM | – | > 100 µM | > 100 µM | > 100 µM | – | > 100 µM | – | > 100 µM | > 100 µM | > 100 µM | > 100 µM | > 100 µM | > 100 µM | – | – | – | – | –
NCCCNOCCCN | – | > 100 µM | – | > 100 µM | > 100 µM | > 100 µM | > 100 µM | > 100 µM | > 100 µM | > 100 µM | > 100 µM | > 100 µM | > 100 µM | > 100 µM | > 100 µM | – | – | – | – | –
NC(=O)CC(N)C(=O)NC(Cc1ccccc1)C(=O)NC(Cc1ccccc1)NC(=O)C(Cc1c[nH]c2ccccc12)C(=O)O (stereo not given) | > 100 µM | > 100 µM | > 100 µM | > 100 µM | > 100 µM | > 100 µM | > 100 µM | > 100 µM | > 100 µM | > 100 µM | > 100 µM | > 100 µM | > 100 µM | > 100 µM | – | – | – | – | – | –
CN(C)CCNC(=O)c1cccc2nc3c(C(=O)NCCN(C)C)cccc3nc12 | 3.76 µM | 4.16 µM | 12.7 µM | 21.6 µM | 9.88 µM | 2.59 µM | 3.59 µM | 1.81 µM | 5.76 µM | 12.8 µM | 8.67 µM | 6.01 µM | 4.84 µM | 13.6 µM | – | – | – | – | – | –
Cc1ccc(NC(=O)/C(Cc2cc(=O)oc3cc(O)ccc23)=N\NC(C)(C)C)cc1C | – | > 100 µM | > 100 µM | > 100 µM | > 100 µM | > 100 µM | – | – | > 100 µM | > 100 µM | > 100 µM | > 100 µM | > 100 µM | – | > 100 µM | – | – | – | – | –
Cc1nc2ccc(F)cc2c(Cl)c1CCCl | > 100 µM | – | 48.4 µM | > 100 µM | > 100 µM | 82.5 µM | 87.6 µM | 93.6 µM | > 100 µM | > 100 µM | > 100 µM | > 100 µM | > 100 µM | – | – | – | – | – | – | –
c1ccc(SC23C4C5C6C4C2C6C53)nc1 (stereo not given) | > 100 µM | > 100 µM | > 100 µM | > 100 µM | > 100 µM | – | > 100 µM | > 100 µM | > 100 µM | – | > 100 µM | > 100 µM | > 31.6 µM | > 100 µM | – | – | – | – | – | –
CCn1c2c(c3ccccc31)[C@@H](c1ccc(Cl)cc1)CC1C(=O)N(c3ccccc3)C(=O)C21 (stereo not given in full) | > 100 µM | > 100 µM | > 100 µM | > 100 µM | > 100 µM | – | > 100 µM | > 100 µM | > 100 µM | – | > 100 µM | > 100 µM | > 100 µM | > 100 µM | – | – | – | – | – | –
C=CCOC(OCC=C)/C(Br)=C/C | > 100 µM | > 100 µM | > 100 µM | > 100 µM | 34 µM | > 100 µM | – | – | > 100 µM | > 100 µM | > 100 µM | > 100 µM | 75.2 µM | > 100 µM | > 100 µM | – | – | – | – | –
COC(=O)CCNc1c2ccccc2nc2cccc([N+](=O)[O-])c12 | – | 0.00284 µM | 0.18 µM and 0.0689 µM | 0.217 µM and 0.0495 µM | 0.00134 µM | 0.00104 µM | 0.00226 µM | 0.00493 µM | – | 19.6 µM | 0.00397 µM | 0.132 µM and 0.726 µM | – | 0.108 µM and 0.0278 µM | 0.00136 µM | 0.00104 µM | 0.00682 µM and 0.0157 µM | 0.00416 µM | 0.0016 µM | 1.26 µM
C#C[C@@]1(O)CCCC2=CC3(CC[C@]21C)SCCS3 | > 100 µM | > 100 µM | – | > 100 µM | > 100 µM | > 100 µM | > 100 µM | > 100 µM | > 100 µM | > 100 µM | > 100 µM | > 100 µM | > 100 µM | > 100 µM | > 100 µM | – | – | – | – | –
Cc1cc2c(c(S(=O)(=O)c3ccccc3[N+](=O)[O-])c1)NCCC2 | > 100 µM | > 100 µM | – | > 100 µM | > 100 µM | > 100 µM | > 100 µM | > 100 µM | > 100 µM | > 100 µM | > 100 µM | > 100 µM | > 100 µM | > 100 µM | > 100 µM | – | – | – | – | –
CCOC(=O)C(=CNC(=S)N=Nc1c(O)[nH]c2ccccc12)C(=O)OCC | – | > 100 µM | > 100 µM | > 100 µM | > 100 µM | > 100 µM | – | – | > 100 µM | > 100 µM | > 100 µM | > 100 µM | > 100 µM | > 100 µM | > 100 µM | – | – | – | – | –
